tested on: JAK1/TYK2 pSTAT5 (Tyr694/699) in THP-1 cell line; experiment: IFNa-stimulated JAK1/TYK2 pSTAT5 (Tyr694/699) inhibition cellular assay, AlphaLISA; assay type: cell-based; details: Homo sapiens; THP-1 cells, IFNa-stimulated pSTAT5 (Tyr694/699), AlphaLISA (Assay B); read-out: Cellular_THP1_IFNa-pSTATS_TYK2
Method: Assay B: JAK1/TYK2 pSTAT5 (Tyr694/699) inhibition IC50 Cellular Assays
To evaluate the inhibition effect of compounds disclosed herein against TYK2, an IFNa-stimulated JAE1/TYK2 pSTAT5 (Tyr694/699) quantification assay was conducted in the THP-1 cell line using an AlphaLISA detection method (PerkinElmer ALSU-PST5). Compounds in DMSO were serially diluted in a 96-well plate (10 mM starting concentration, 6-fold dilutions, 8 concentrations total) prior to dispensing of 8 nL into a 384-well plate using an I.DOT non-contact liquid handler (Dispendix). Cells were collected via centrifugation at 300 ref for 5 min and resuspended in Hanks' Balanced Salt Solution (Gibco 14175-079), and 6 μl containing 2e4 cells was dispensed into each well of the 384-well plate containing test compounds or DMSO alone (final concentrations: 10000, 1666.67, 277.78, 46.30, 7.72, 1.29, 0.21 and 0.04 nM). Cells were then incubated for 1 h at 37° C. with 5% CO2 prior to the addition of 2 μL IFNa (100 ng/mL; PBL Assay Science 11175-1). Following an additional 30 min incubation at 37° C. with 5% CO2, 2 μL of 5× lysis buffer was added to each well using the I.DOT […]. Plates were sealed and incubated at RT for 10 min on a plate shaker set to 400 RPM. Cell lysates were then frozen at −80° C. before subsequent detection of pSTAT5 by AlphaLISA. At the time of the detection assay, cell lysates were thawed for 5 min at room temperature and then on a plate shaker set to 400 RPM for an additional 10 min. Following the manufacturer recommended protocol (Perkin Elmer), 5 μL of acceptor bead master mix was added to each well; plates were then resealed and incubated for 2 min at RT on a plate shaker (400 rpm) prior to an additional 2-h incubation without agitation (protected from light). Donor bead master mix, 5 uL per well, was then added to each well before 2 min of shaking (RT, 400 rpm) and 2-h incubation (RT, no shaking, protected from light). Levels of pSTAT5 protein were then measured as fluorescent signal at 615 nm with an EnVision multimode plate reader (Perkin Elmer). IC50 values were calculated in Dotmatics using the four-parameter logistic curve regression model with bottom fixed to 0 and Hill Slope fixed to −1.

Row | IC50 [nM] | Structure (SMILES)
1 | ≤ 500 | CNc1ncc(C#Cc2ccc3c(=O)n(C)ccc3c2)c2cc(NC(=O)C3CC3)ncc12 [Example 1136, N-(5-((2-methyl-1-oxo-1,2-dihydroisoquinolin-6-yl)ethynyl)-8-(methylamino)-2,7-naphthyridin-3-yl)cyclopropanecarboxamide]
2 | ≤ 500 | CNc1ncc(C#Cc2cn(C(F)F)c(C)n2)c2cc(NC(=O)[C@H]3C[C@H]3C)ncc12 [Example 1139, (1S,2R)—N-(5-((1-(difluoromethyl)-2-methyl-1H-imidazol-4-yl)ethynyl)-8-(methylamino)-2,7-naphthyridin-3-yl)-2-methylcyclopropanecarboxamide]
3 | ≤ 500 | CNc1ncc(-c2nc3ncc(C)cc3o2)c2cc(NC(=O)C3CC3)ncc12 [Example 1104, N-(8-(methylamino)-5-(6-methyloxazolo[4,5-b]pyridin-2-yl)-2,7-naphthyridin-3-yl)cyclopropanecarboxamide]
4 | > 500 | CNc1ncc(C#Cc2cccc3c2CNCC3)c2cc(NC(=O)C3CC3)ncc12 [Example 1137, N-(8-(methylamino)-5-((1,2,3,4-tetrahydroisoquinolin-8-yl)ethynyl)-2,7-naphthyridin-3-yl)cyclopropanecarboxamide]
5 | ≤ 500 | CNc1ncc(C#Cc2cnc(C)n2C(F)F)c2cc(NC(=O)[C@H]3C[C@H]3C)ncc12 [Example 1140, (1S,2R)—N-(5-((1-(difluoromethyl)-2-methyl-1H-imidazol-5-yl)ethynyl)-8-(methylamino)-2,7-naphthyridin-3-yl)-2-methylcyclopropanecarboxamide]

same assay, conditions: Homo sapiens; THP-1 cells, IFNa-stimulated, AlphaLISA (Assay B); read-out: Cellular_THP1_IFNa-pSTATS_TYK2

Row | IC50 [nM] | Structure (SMILES)
6 | ≤ 500 | CNc1ncc(C#Cc2ccc(Cn3cccn3)cn2)c2cc(NC(=O)C3CC3)ncc12 [Example 907, N-(5-((5-((1H-pyrazol-1-yl)methyl)pyridin-2-yl)ethynyl)-8-(methylamino)-2,7-naphthyridin-3-yl)cyclopropanecarboxamide]
7 | ≤ 500 | CNc1ncc(C#Cc2ccc(CC#N)cn2)c2cc(NC(=O)C3CC3)ncc12 [Example 911, N-(5-((5-(cyanomethyl)pyridin-2-yl)ethynyl)-8-(methylamino)-2,7-naphthyridin-3-yl)cyclopropanecarboxamide]
8 | ≤ 500 | CNc1ncc(C#Cc2ccc(CN3CCC3)cn2)c2cc(NC(=O)C3CC3)ncc12 [Example 905, N-(5-((5-(azetidin-1-ylmethyl)pyridin-2-yl)ethynyl)-8-(methylamino)-2,7-naphthyridin-3-yl)cyclopropanecarboxamide]
9 | ≤ 500 | CNc1ncc(C#Cc2ccc(Cn3ccnn3)cn2)c2cc(NC(=O)C3CC3)ncc12 [Example 909, N-(5-((5-((1H-1,2,3-triazol-1-yl)methyl)pyridin-2-yl)ethynyl)-8-(methylamino)-2,7-naphthyridin-3-yl)cyclopropanecarboxamide]
10 | ≤ 500 | CNc1ncc(C#Cc2ccc(Cn3nccn3)cn2)c2cc(NC(=O)C3CC3)ncc12 [Example 908, N-(5-((5-((2H-1,2,3-triazol-2-yl)methyl)pyridin-2-yl)ethynyl)-8-(methylamino)-2,7-naphthyridin-3-yl)cyclopropanecarboxamide]
11 | ≤ 500 | CNc1ncc(C#Cc2ccc3nc(CF)n(C)c3c2)c2cc(NC(=O)C3CC3)ncc12 [Example 810, N-(5-((2-(fluoromethyl)-1-methyl-1H-benzo[d]imidazol-6-yl)ethynyl)-8-(methylamino)-2,7-naphthyridin-3-yl)cyclopropanecarboxamide]
12 | ≤ 500 | CNc1ncc(C#Cc2ccc(C(C)(C)O)cc2)c2cc(NC(=O)C3CC3)ncc12 [Example 802, N-(5-((4-(2-hydroxypropan-2-yl)phenyl)ethynyl)-8-(methylamino)-2,7-naphthyridin-3-yl)cyclopropanecarboxamide]
13 | ≤ 500 | CNc1ncc(C#Cc2ccc(C(C)(C)C#N)cc2)c2cc(NC(=O)C3CC3)ncc12 [Example 910, N-(5-((4-(2-cyanopropan-2-yl)phenyl)ethynyl)-8-(methylamino)-2,7-naphthyridin-3-yl)cyclopropanecarboxamide]

same assay, conditions: THP-1 cells, IFNa-stimulated, AlphaLISA (Assay B); read-out: Cellular_THP1_IFNa-pSTATS_TYK2

Row | IC50 [nM] | Structure (SMILES)
14 | ≤ 500 | CNc1ncc(-c2nc3cc(-c4ncnn4C)ccc3o2)c2cc(NC(=O)C3CC3)ncc12 [Example 465]
